Measured values: patent publication US6906048B2, “N-acetylcolchinol-O-phosphate combination therapies with vascular damaging activity” (AstraZeneca AB, priority 2000, dated 2005)

What was measured:
[1] = tested on: murine adenocarcinoma CaNT tumour; experiment: Cell survival assay, CaNT tumour model: effect of dosage interval; type: in vivo, mice; settings: two doses of 100 mg/kg i.p. separated by 2, 3 or 4 hours; tumours excised about 18 hours after treatment
Method: (§1) In vivo cell survival was measured using an excision assay (D J Chaplin et al., Anticancer Research 19: 189-196 (1999)).
(§2) Tumours were excised at about 18 hours after treatment, weighed and disaggregated for 1 hour at 37 degrees Celsius in an enzyme cocktail containing 1 mg/ml pronase, 0.5 mg/ml DNAase and 0.5 mg/ml collagenase. Haemocytometer counts of trypan blue-excluding cells were made and viable cells seeded in appropriate concentrations to yield about 50 colonies/dish after in vitro incubation. Heavily irradiated feeder cells (V79 cells) were used at a concentration of 25,000/ml to support the growth of the surviving CaNT cells. The data were calculated as surviving fraction per gram of tumour.
(§3) ZD6126 was administered as a single dose of […] intra-peritoneally (i.p.) in saline with a small amount of 1% sodium carbonate added to aid the dissolution of ZD6126.
ZD6126 was dosed using a split dose regimen of 100 mg/kg ZD6126, followed by a time interval, followed by a further 100 mg/kg ZD6126; doses were given intraperitoneally (i.p.) in saline with a small amount of 1% sodium carbonate added to aid the dissolution of ZD6126. The time intervals used were 1, 2, 3, 4 and 6 hours.

[2] = tested on: murine adenocarcinoma CaNT tumour; experiment: Cell survival assay, CaNT tumour model: effect of dosage interval and split dose proportions; type: in vivo, mice
Method: as §1, §2
This improved effect varied with the proportion of total dose given in the first and second doses.
as §3
ZD6126 was dosed using split dose regimens of: • i) 25 mg/kg ZD6126, followed by a 2 hour interval, followed by a further 175 mg/kg ZD6126; • ii) 50 mg/kg ZD6126, followed by a 2 hour interval, followed by a further 150 mg/kg ZD6126; • iii) 100 mg/kg ZD6126, followed by a 2 hour interval, followed by a further 100 mg/kg ZD6126; • iv) 150 mg/kg ZD6126, followed by a 2 hour interval, followed by a further 50 mg/kg ZD6126; • v) 175 mg/kg ZD6126, followed by a 2 hour interval, followed by a further 25 mg/kg ZD6126; All doses were given intraperitoneally (i.p.) in saline with a small amount of 1% sodium carbonate added to aid the dissolution of ZD6126.

murine KHT sarcoma [3] = experiment: KHT sarcoma tumour model, ZD6126 and radiation (tumour cell survival, excision and colony formation); type: in vivo, mice
Method: The murine KHT sarcoma grown in C3H mice was also used to confirm the advantage of combining ZD6126 and radiation. Tumours were treated with either radiation alone (0, 5, 10, 15 or 20 Gy single dose), ZD6126 100 mg/kg i.p., or radiation followed 1 hour later by ZD6126 100 mg/kg i.p.. The effects of either radiation alone, ZD6126 alone or the combination on tumour cell survival was assessed 24 hours later by excising the tumour, disaggregating the cells and determining the number of colonies formed after 10-14 days. Surviving fraction compared to untreated cells was then determined.

[4] = tested on: murine adenocarcinoma CaNT tumour; experiment: CaNT tumour model, ZD6126 and cisplatin, second study (tumour growth delay); type: in vivo; settings: study 2, female CBA mice; ZD6126 100 + 100 mg/kg i.p. 2 h apart on days 0, 4, 7, 11; cisplatin 5 mg/kg i.p. days 0 and 7
Method: ZD6126 alone was dosed on days 0, 4, 7 and 11 using a split dose regimen of ZD6126 100 mg/kg i.p., followed by a 2 hour interval, followed by a further 100 mg/kg ZD6126 i.p.. Cisplatin alone was dosed at 5 mg/kg i.p on day 0 and day 7.
(§4) The combination treatment consisted of: • Days 0 and 7: ZD6126 100 mg/kg i.p., followed by a 2 hour interval, followed by a further 100 mg/kg ZD6126 i.p.; cisplatin given 10 minutes before first ZD6126 dose. • Days 3, 7 and 10: ZD6126 100 mg/kg i.p., followed by a 2 hour interval, followed by a further 100 mg/kg ZD6126 i.p..

[5] = tested on: murine adenocarcinoma CaNT tumour; experiment: CaNT tumour model, ZD6126 and cisplatin, first study (tumour growth delay); type: in vivo; settings: study 1, female CBA mice; ZD6126 100 + 100 mg/kg i.p. 2 h apart on days 0, 2, 4; cisplatin 5 mg/kg i.p. day 0
Method: ZD6126 alone was dosed on days 0, 2 and 4 using a split dose regimen of 100 mg/kg ZD6126, followed by a 2 hour interval, followed by a further 100 mg/kg ZD6126; doses were given intraperitoneally (i.p.).
Cisplatin (David Bull Laboratories) alone was dosed at 5 mg/kg i.p on day 0.
as §4, with “Day 0:” for “Days 0 and 7:”, “i.p; and” for “i.p.;”, “cisplatin 5 mg/kg” for “cisplatin”, “2” for “3, 7”, “4:” for “10:”, “i.p.” for “i.p..”

[6] = tested on: human Calu 6 tumour cells; experiment: Calu 6 tumour model, ZD6126 and cisplatin (tumour growth delay); type: in vivo; settings: athymic nude mice; ZD6126 100 mg/kg i.p. daily x5 (days 0-4 alone, days 1-5 in combination); cisplatin 4 mg/kg i.p. day 0
Method: In a second tumour model, Calu 6, the advantage of combining ZD6126 and cisplatin (cis-Platinum(lI)Diammine Dichloride—Sigma P-4394) was confirmed. Athymic nude mice were implanted subcutaneously with 1×10^6 human Calu 6 tumour cells (obtained from American Type Culture Collection, 10801 University Boulevard, Manassas, Va. 20110-2209 Cat. no. HTB-56) and tumours allowed to grow until they were approximately 9 mm in diameter.
Groups of 10 tumour bearing mice were then treated as follows: • ZD6126 alone was dosed 100 mg/kg i.p. on days 0, 1, 2, 3, 4. • Cisplatin alone was dosed 4 mg/kg i.p. on day 0.
In the combination arm cisplatin 4 mg/kg i.p. was dosed on day 0, and ZD6126 100 mg/kg i.p. was dosed on days 1, 2, 3, 4 and 5.

murine KHT sarcoma [7] = experiment: KHT sarcoma tumour model, cisplatin plus ZD6126 (tumour cell survival, excision and colony formation); type: in vivo, mice; settings: 10 mg/kg cisplatin i.p. alone, assessed 24 hours later
Method: In the murine KHT sarcoma model (Lingyun Li, B. S. et al, Int. J. Radiation Oncology Biol. Phys 42, 899-903, 1998) tumours were treated with either 10 mg/kg cisplatin i.p. alone or 10 mg/kg cisplatin plus ZD6126 (10-100 mg/kg i.p.), cisplatin given 1 hour prior to ZD6126. The effects of the treatments on tumour cell survival was assessed 24 hours later by excising the tumour, disaggregating the cells and determining the number of colonies formed after 10-14 days. Surviving fraction compared to untreated cells was then determined.

| SMILES | surviving fraction of tumour cells, divided doses compared with single dose [1] | split dose proportion giving the best anti-tumour effect ([2]; regimen iii) 100 mg/kg + 100 mg/kg, 2 hour interval) | significance of the greater effect of divided doses over a single dose ([2]; regimens i) 25+175, iii) 100+100 or iv) 150+50 mg/kg, 2 hour interval) | anti-tumour effect, as measured by surviving fraction of tumour cells, divided doses compared with single dose ([2]; total 200 mg/kg i.p. in two doses 2 hours apart, regimens i) to v)) | enhanced cell killing over controls (murine KHT sarcoma [3]; ZD6126 alone with no radiation) [fold] | Plus ZD6126 % cell survival (murine KHT sarcoma [3]; radiation dose 0 Gy, ZD6126 100 mg/kg i.p., C3H mice, 24 hours later) [%] | Plus ZD6126 % cell survival (murine KHT sarcoma [3]; radiation dose 5 Gy followed 1 hour later by ZD6126 100 mg/kg i.p.) [%] | Plus ZD6126 % cell survival (murine KHT sarcoma [3]; radiation dose 10 Gy followed 1 hour later by ZD6126 100 mg/kg i.p.) [%] | Plus ZD6126 % cell survival (murine KHT sarcoma [3]; radiation dose 15 Gy followed 1 hour later by ZD6126 100 mg/kg i.p.) [%] | Mean growth delay (vs control) - days [4] [days] | Mean growth delay (vs control) - days [5] [days] | growth delay (time to reach 2× starting volume) compared to control tumours [6] [days] | cell killing (murine KHT sarcoma [7]) |
| --- | --- | --- | --- | --- | --- | --- | --- | --- | --- | --- | --- | --- | --- |
| COc1cc2c(c(OC)c1OC)-c1ccc(OP(=O)(O)O)cc1[C@@H](NC(C)=O)CC2 [ZD6126, (5S)-5-(acetylamino)-9,10,11-trimethoxy-6,7-dihydro-5H-dibenzo[a,c]cyclohepten-3-yl dihydrogen phosphate] | significantly more effective in this model than a single 200 mg/kg dose | best effect was seen with equal split doses | significant | greater with divided doses of ZD6126 than with a single dose of 200 mg/kg ZD6126 | 40 | 2.5 | 0.16 | 0.015 | 0.0016 | – | – | – | – |
| [NH2][Pt]([NH2])([Cl])[Cl] [Cisplatin, cis-Platinum(lI)Diammine Dichloride] | – | – | – | – | – | – | – | – | – | 7.7 | 2.1 | 6.0 | approximately 98% |
